In US9464308B2, “Method for transcriptional amplification of nucleic acids combining steps of different temperatures” (priority 2011, dated 2016):
Read-outs that look alike come from different tables or passages of the source.

Columns and labels:
T7 RNA polymerase [1] = target: T1, T7 RNA polymerase (Escherichia phage T7, UniProt P00573); experiment: Thermal denaturation of T7 RNA polymerase (T7 Tm) by UV spectrophotometry; type: physicochemical; settings: for ΔTm: T7 RNA polymerase at 0.05 mg/ml, PBS 150 mM pH 7.5, versus control without additive (T7 Tm 48.5° C.), Sorbitol 1M, Sucrose 1M, Lactose 0.35M, Raffmose 0.085M, D-Turanose 0.15M; for denaturation temperature of the enzyme (in words): heating T7 RNA polymerase in the presence of the additive
T1 construct: purchased bioMérieux, Marcy l'Etoile, France
Method: T7 RNA polymerase was chosen as model enzyme since it is the most sensitive to thermal denaturation; the T7 Tm without additive is 48.5° C.
A UV spectrophotometry technique is used to measure the T7 Tm values. The change in the absorbance of the protein at λ=280 nm as a function of temperature is measured. When the enzyme is heated, the solution becomes cloudy, and aggregates form which correspond to the denatured form. The Tm corresponds to the temperature for which there is 50% of native form and 50% of denatured form (first derivative of the curve absorbance=f(temperature)).
In a polypropylene flask, 4 ml of 300 mM PBS phosphate buffer (Aldrich P-4417, St Quentin Fallavier, France) are mixed with 12μl of T7 RNA polymerase enzyme (bioMérieux, Marcy l'Etoile, France) at 17 mg/ml, i.e. a final protein concentration of 0.05 mg/ml. 500 μl of T7 RNA polymerase solution at 0.05 mg/ml and 500 μl of a concentrated solution of additives (Aldrich, St Quentin Fallavier, France) or of 300 mM PBS for the control are then placed in a quartz cuvette for UV spectrophotometry. After homogenization, the change in absorbance at λ=280 nm is measured as a function of temperature, between 30 and 65° C. at 1° C./min, in order to determine the T7 Tm as previously described (Cary UV spectrophotometer, Varian, Les Ulis, France).

HIV-1 type B transcript = experiment: NASBA HIV-1 2.0 amplification test at 46° C., functional screening of thermostabilizing compounds; type: biochemical; settings: 7.5 cps/reaction HIV-1B transcript, lactose 0.21 M, sorbitol 1.2 M, sucrose 0.6 M
Method: The FIG. 1 represent the functional screening of thermostabilizing compounds during NASBA amplifications at 46° C. in the presence of 7.5 cps/reaction of HIV-1B transcript (seven replicas per screening), with in:
A set of compounds with thermostabilizing properties or assumed to have such properties was evaluated in a NASBA HIV-1 2.0 amplification test on a Nuclisens EasyQ™ amplification platform (bioMérieux, Marcy l'Etoile, France) according to the supplier's recommendations. 5 cps to 30 cps of an HIV-1 type B transcript were used as target in each reaction in the presence or absence of the compound to be evaluated.
The obtaining of an amplification in the presence of the compound at a temperature of 46° C. makes it possible to validate the compound as compatible and thermostabilizing for the NASBA reaction.

T7 RNA polymerase [2] = target: T1, T7 RNA polymerase; experiment: Thermostability (T1/2) at 46° C. of T7 RNA polymerase activity; type: biochemical; settings: environment specific to NASBA, sorbitol 1.48 M
Method: In this example, the values of T1/2 of T7 RNA polymerase are determined in the presence or absence of polyols. A description of the measurement method is given below, as are the various reagents used.
Mix buffers B, C and D according to the following proportions with the following Nuclisens™ HIV-1 2.0 reagents (ref.: 285033, bioMérieux, Marcy l'Etoile, France) (for eight reactions): • 36.08 μl buffer A • 6.32 μl buffer B • 25.36 μl buffer C • 173.6 μl buffer D • eight “Nuclisens™ HIV-1 2.0 accusphere reagent” • 960 μl of “Nuclisens™ HIV-1 2.0 diluent reagent”. […]
• 1. The enzymes to be evaluated are diluted in such a way as to have a volumetric activity of 109 kU/ml. • 2. A volume of 20 μl of the enzyme to be evaluated is diluted in 840 μl of solution W1. • 3. 114 μl of the compound to be evaluated are then added to 193.5 μl of enzymatic mix described in point 2 above. • 4. […] 20 μl of solution S are added to 5 n1 of this preincubated mixture in order to measure the rate of increase in fluorescence between 5 and 10 minutes, associated with the residual activity of the enzyme. • 6. […]

T7 RNA polymerase [3] = target: T1, T7 RNA polymerase; experiment: Maximum preincubation temperature preserving T7 RNA polymerase activity (3 min preincubation); type: biochemical; settings: 3 minutes at 48° C.; 0.7 M sucrose, 0.4 M trehalose, 1.4 M sorbitol
Method: FIG. 2 describes the residual activity (%) of T7 RNA polymerase after 3 minutes of preincubation at various temperatures and in the presence of various thermostabilizing compounds.
In this example, the maximum temperature that the T7 RNA polymerase could withstand for a preincubation of 3 minutes in the presence of thermostabilizing compounds is determined.
This step can be likened to a target predenaturation or preincubation phase. The protocol used in this example is similar to that of example 2, with the exception of the fact that the temperatures are variable and that the preincubation time was fixed at 3 minutes.

T7 RNA polymerase [4] = target: T1, T7 RNA polymerase; experiment: Residual T7 RNA polymerase activity after preincubation at various temperatures, with or without 0.4 M trehalose; type: biochemical; settings: 15 minutes of preincubation at various temperatures
Method: FIG. 3A describes the residual activity of T7 RNA polymerase after 15 minutes of preincubation at various temperatures, with or without 0.4 M trehalose.
(§1) Description of the method for measuring the T7 RNA polymerase, RNAse H and AMV-RT activities for example 5: • 1. The T7 RNA polymerase, RNAse H and AMV-RT enzymes are used at volumetric activities of 109 kU/ml, 1 kU/ml and 25 kU/ml respectively. • 2. The T7 RNA polymerase, RNAse H and AMV-RT enzymes are diluted in the solution W1 of example 3 according to the ratios 1/43, 2/191 and 2/27 respectively, in order to mimic the physicochemical environment of the NASBA reaction. • 3. […] The residual activity of each of the T7 RNA polymerase, RNAse H or AMV-RT activities is then measured by adding 5 μl of enzymatic solution to 20 μl of solution S containing the reagents corresponding to each of the activities measured. […]
(§2) • 6. The residual activity of each mutant is expressed as percentage of the fraction of enzyme having not been preincubated and corresponding to 100% activity according to the following calculation: • ρN=slope obtained between 5 and 10 min for the enzyme not preincubated, • ρT=slope obtained between 5 and 10 min for the enzyme preincubated at various temperatures, with or without the presence of the polyol to be studied, and • percentage relative activity=% (ρT/ρN).

RNAse H = experiment: Residual RNAse H activity after preincubation at various temperatures, with or without 0.4 M trehalose; type: biochemical; settings: 25 minutes of preincubation at various temperatures
Method: FIG. 3B describes the residual activity of RNAse H after 25 minutes of preincubation at various temperatures, with or without 0.4 M trehalose.
as §1, §2

AMV-RT = experiment: Residual AMV-RT activity after preincubation at various temperatures, with or without 0.4 M trehalose; type: biochemical; settings: 25 minutes of preincubation at various temperatures
Method: FIG. 3C describes the residual activity of AMV-RT after 25 minutes of preincubation at various temperatures, with or without 0.4 M trehalose.
as §1, §2

T1 sequence (P00573 whole entry): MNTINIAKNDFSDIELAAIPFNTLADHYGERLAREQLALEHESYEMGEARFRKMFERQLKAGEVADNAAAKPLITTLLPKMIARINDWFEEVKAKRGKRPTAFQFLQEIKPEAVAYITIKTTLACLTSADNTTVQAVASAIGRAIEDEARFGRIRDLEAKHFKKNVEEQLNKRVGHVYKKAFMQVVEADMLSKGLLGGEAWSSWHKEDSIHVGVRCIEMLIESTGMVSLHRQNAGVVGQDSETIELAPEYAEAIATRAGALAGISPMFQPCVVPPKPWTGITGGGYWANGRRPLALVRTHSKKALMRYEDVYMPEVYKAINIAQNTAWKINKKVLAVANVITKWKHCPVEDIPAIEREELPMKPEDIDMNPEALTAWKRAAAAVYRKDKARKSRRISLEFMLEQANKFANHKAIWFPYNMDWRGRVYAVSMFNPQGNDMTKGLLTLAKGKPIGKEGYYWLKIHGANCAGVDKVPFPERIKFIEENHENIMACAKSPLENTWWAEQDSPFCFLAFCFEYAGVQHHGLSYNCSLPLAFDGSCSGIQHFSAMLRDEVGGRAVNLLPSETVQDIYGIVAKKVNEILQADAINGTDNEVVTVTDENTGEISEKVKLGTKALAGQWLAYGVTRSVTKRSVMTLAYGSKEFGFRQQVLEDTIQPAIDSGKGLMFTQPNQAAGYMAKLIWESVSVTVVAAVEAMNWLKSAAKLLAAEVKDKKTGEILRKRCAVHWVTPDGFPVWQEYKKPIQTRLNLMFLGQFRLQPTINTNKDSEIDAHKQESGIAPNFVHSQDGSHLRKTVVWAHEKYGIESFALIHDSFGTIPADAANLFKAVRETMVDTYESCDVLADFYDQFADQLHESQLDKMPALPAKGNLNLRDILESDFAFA

Structure (SMILES) | NASBA amplification at 46° C. (positive signals out of seven replicas) (HIV-1 type B transcript) | ΔTm (T7 RNA polymerase [1]; read-out: ΔTm) [°C] | denaturation temperature of the enzyme (in words) (T7 RNA polymerase [1]) | T7 RNA polymerase activity preserved (T7 RNA polymerase [3]) [%] | other results
O=C(CO)[C@@H](O[C@H]1O[C@H](CO)[C@@H](O)[C@H](O)[C@H]1O)[C@H](O)[C@H](O)CO [D-Turanose] | – | – | – | – | ΔTm (T7 RNA polymerase [1]): −4.4 °C
OC[C@H]1O[C@@H](O[C@H]2[C@H](O)[C@@H](O)C(O)O[C@@H]2CO)[C@H](O)[C@@H](O)[C@H]1O (some centres unmarked) [Lactose, lactose] | at least four positive signals out of seven replicas | 5.5 | very significantly increase the denaturation temperature of the enzyme | – | thermostabilizing effect on the T7 RNA polymerase activity (in words) (T7 RNA polymerase [2]): weak thermostabilizing power
OC[C@H]1O[C@H](OC[C@H]2O[C@H](O[C@]3(CO)O[C@H](CO)[C@@H](O)[C@@H]3O)[C@H](O)[C@@H](O)[C@@H]2O)[C@H](O)[C@@H](O)[C@H]1O [Raffmose, raffinose] | – | 0.5 | – | – | –
OC[C@H]1O[C@@](CO)(O[C@H]2O[C@H](CO)[C@@H](O)[C@H](O)[C@H]2O)[C@@H](O)[C@@H]1O [Sucrose, sucrose] | at least four positive signals out of seven replicas | 5.8 | very significantly increase the denaturation temperature of the enzyme | 100 | –
OC[C@H]1O[C@H](O[C@H]2O[C@H](CO)[C@@H](O)[C@H](O)[C@H]2O)[C@H](O)[C@@H](O)[C@@H]1O [Trehalose, trehalose] | – | – | – | 100 | thermostability of T7 RNA polymerase (in words) (T7 RNA polymerase [4]): makes it possible to render it more thermostable; thermostabilizing effect on RNAse H activity (in words) (RNAse H): thermostabilizing effect; thermostabilizing effect on AMV-RT activity (in words) (AMV-RT): thermostabilizing effect
